Where “and” joins values, the source holds several entries; their conditions need not be identical. Identical values can stand only once.
What follows are molecules tested against T1, Gal4-HNF4α (human HNF4α LBD) (Homo sapiens, UniProt P41235) (assay: Hybrid Gal4-HNF4α reporter gene assay in transiently transfected HEK293T cells). Conditions: Table S1, primary screening, 50 µM.
T1 construct: uniprot entry: P41235-1, residues 142-377; expressed in transfected cells; host or cells: HEK293T
T1 sequence (P41235 142-377): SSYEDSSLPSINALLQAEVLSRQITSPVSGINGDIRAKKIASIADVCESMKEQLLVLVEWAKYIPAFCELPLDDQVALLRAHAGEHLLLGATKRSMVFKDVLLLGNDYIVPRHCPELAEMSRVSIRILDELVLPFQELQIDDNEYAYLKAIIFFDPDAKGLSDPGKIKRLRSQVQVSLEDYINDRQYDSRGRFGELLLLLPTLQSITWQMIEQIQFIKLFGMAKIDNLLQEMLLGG
Format: cell-based

SMILES	HNF4a-screening_activity_(mean_of_n=2)
CC(C)C1NCCc2c1[nH]c1ccccc21 (centres unmarked) [Prestw-Frag-1264, CC(C)C1NCCc2c1[nH]c1ccccc21]	1.008
NC1=NCCN1 [Prestw-Frag-1268, NC1=NCCN1]	1.024
COc1cc2c(cc1OC)C(C)N(C)CC2 (centres unmarked) [Prestw-Frag-1273, COc1cc2CCN(C)C(C)c2cc1OC]	1.056 and 0.9179
COc1cc2c(cc1OC)CN(C)CC2 [Prestw-Frag-1275, COc1cc2CCN(C)Cc2cc1OC]	0.9717 and 0.8575
COc1cc2c(cc1OC)CNCC2 [Prestw-Frag-1276, COc1cc2CCNCc2cc1OC]	1.117
OCc1cc2ccccc2[nH]1 [Prestw-Frag-1297, OCc1cc2ccccc2[nH]1]	1.241
CCc1cccc2c(CCO)c[nH]c12 [Prestw-Frag-1299, CCc1cccc2c(CCO)c[nH]c12]	1.255
OCCn1ccnc1 [Prestw-Frag-1303, OCCn1ccnc1]	0.8061 and 1.219
C[C@H]1NC(=O)NC1=O [Prestw-Frag-1311, C[C@H]1NC(=O)NC1=O]	1.09
COc1ccc(C(=O)O)cc1N1CCCC1 [Prestw-Frag-1313, COc1ccc(cc1N1CCCC1)C(O)=O]	1.093
O=C(O)c1ccccc1Nc1cccc(Cl)c1 [Prestw-Frag-1319, OC(=O)c1ccccc1Nc1cccc(Cl)c1]	0.64
Cc1cccc(Nc2ccccc2C(=O)O)c1 [Prestw-Frag-1320, Cc1cccc(Nc2ccccc2C(O)=O)c1]	0.7946 and 1.022
Nc1cccc(C(F)(F)F)c1 [Prestw-Frag-1322, Nc1cccc(c1)C(F)(F)F]	0.9015
Fc1ccc(C(c2ccc(F)cc2)N2CCNCC2)cc1 [Prestw-Frag-1323, Fc1ccc(cc1)C(N1CCNCC1)c1ccc(F)cc1]	1.017 and 1.002
CN1CCN(C(c2ccccc2)c2ccccc2)CC1 [Prestw-Frag-1325, CN1CCN(CC1)C(c1ccccc1)c1ccccc1]	0.9831
COc1ccccc1OCCCO [Prestw-Frag-1335, COc1ccccc1OCCCO]	0.806 and 0.9658
OCC(O)COc1ccccc1 (centres unmarked) [Prestw-Frag-1337, OCC(O)COc1ccccc1]	0.9566
COc1ccccc1OCCO [Prestw-Frag-1338, COc1ccccc1OCCO]	0.8769 and 0.9665
CCC(C(=O)OCCN(CC)CC)c1ccccc1 (centres unmarked) [Prestw-Frag-1343, CCC(C(=O)OCCN(CC)CC)c1ccccc1]	0.9028 and 1.004
CCN(CC)CCOc1ccccc1O [Prestw-Frag-1345, CCN(CC)CCOc1ccccc1O]	0.7766 and 1.111
OC(c1ccc(Cl)cc1)c1ccccn1 (centres unmarked) [Prestw-Frag-1346, OC(c1ccc(Cl)cc1)c1ccccn1]	0.8912
CCOC(=O)C1c2ccccc2Oc2ccccc21 [Prestw-Frag-1348, CCOC(=O)C1c2ccccc2Oc2ccccc12]	0.8228
CNC(=O)c1cnc(C)cn1 [Prestw-Frag-1350, CNC(=O)c1cnc(C)cn1]	0.7205 and 0.8855

SMILES	HNF4a-screening_activity_(mean_of_n=2)
CNCCc1c[nH]c2ccccc12 [Prestw-Frag-1356, CNCCc1c[nH]c2ccccc12]	0.7184 and 0.9553
COc1ccc(CNc2ncccn2)cc1 [Prestw-Frag-1358, COc1ccc(CNc2ncccn2)cc1]	0.8945 and 1.199
O=C1COc2ccccc21 [Prestw-Frag-1361, O=C1COc2ccccc12]	1.58
OC1(c2ccc(Cl)cc2)CCNCC1 [Prestw-Frag-1365, OC1(CCNCC1)c1ccc(Cl)cc1]	0.8125
CCCC(=O)c1ccc(F)cc1 [Prestw-Frag-1368, CCCC(=O)c1ccc(F)cc1]	1.103
COc1ccc2cc[nH]c2c1 [Prestw-Frag-1372, COc1ccc2cc[nH]c2c1]	1.02
Oc1ccc2cc[nH]c2c1 [Prestw-Frag-1374, Oc1ccc2cc[nH]c2c1]	1.128
O=C(OC1CCCCC1)c1ccccc1O [Prestw-Frag-1382, Oc1ccccc1C(=O)OC1CCCCC1]	0.9579 and 1.189
NCC(O)COc1cccc2ccccc12 (centres unmarked) [Prestw-Frag-1389, NCC(O)COc1cccc2ccccc12]	0.8528 and 1.218
NS(=O)(=O)c1ccccc1C(F)(F)F [Prestw-Frag-1394, NS(=O)(=O)c1ccccc1C(F)(F)F]	0.846
c1cc2c(cc1CN1CCNCC1)OCO2 [Prestw-Frag-1397, C(N1CCNCC1)c1ccc2OCOc2c1]	1.012
c1cnc(N2CCNCC2)nc1 [Prestw-Frag-1398, C1CN(CCN1)c1ncccn1]	1.074 and 0.9138
COC(=O)C(CO)c1ccccc1 (centres unmarked) [Prestw-Frag-1406, COC(=O)C(CO)c1ccccc1]	0.9811 and 0.9479
Cc1c[nH]nc1C [Prestw-Frag-1408, Cc1c[nH]nc1C]	1.108
NNC(=O)c1ccncc1 [Prestw-Frag-1419, NNC(=O)c1ccncc1]	0.9909
NNC(=O)c1ccccc1 [Prestw-Frag-1420, NNC(=O)c1ccccc1]	1.278
c1cnc2[nH]ncc2c1 [Prestw-Frag-1428, c1n[nH]c2ncccc12]	1.325
NC(=O)c1ccccc1O [Prestw-Frag-1439, NC(=O)c1ccccc1O]	1.146
c1ccc(-c2ccccc2-c2nnn[nH]2)cc1 [Prestw-Frag-1441, c1ccc(cc1)-c1ccccc1-c1nnn[nH]1]	1.051 and 0.7815
c1ccc(CC2NCCc3ccccc32)cc1 (centres unmarked) [Prestw-Frag-1444, C(C1NCCc2ccccc12)c1ccccc1]	1.349
COc1ccc(CCN(C)C)cc1OC [Prestw-Frag-1445, COc1ccc(CCN(C)C)cc1OC]	1.047 and 0.984
CNCCc1ccc(OC)c(OC)c1 [Prestw-Frag-1446, CNCCc1ccc(OC)c(OC)c1]	1.187 and 1.106
CCN(CC)Cc1cc(N)ccc1O [Prestw-Frag-1462, CCN(CC)Cc1cc(N)ccc1O]	1.135

SMILES	HNF4a-screening_activity_(mean_of_n=2)
c1ccc(CNc2ccccn2)cc1 [Prestw-Frag-1475, C(Nc1ccccn1)c1ccccc1]	1.278
CN(C)CCNCc1ccccc1 [Prestw-Frag-1476, CN(C)CCNCc1ccccc1]	1.113
CC(=O)NCCc1c[nH]c2ccccc12 [Prestw-Frag-1478, CC(=O)NCCc1c[nH]c2ccccc12]	1.089
COc1ccc2[nH]cc(CCN)c2c1 [Prestw-Frag-1480, COc1ccc2[nH]cc(CCN)c2c1]	1.025 and 1.119
Nc1c(Cl)ccc2nsnc12 [Prestw-Frag-1492, Nc1c(Cl)ccc2nsnc12]	1.089
Cc1cnc(C(=O)O)cn1 [Prestw-Frag-1494, Cc1cnc(cn1)C(O)=O]	0.7971 and 1.166
O=C(O)c1cnccn1 [Prestw-Frag-1495, OC(=O)c1cnccn1]	1.013
O=C(O)CC[C@H](NC(=O)c1ccccc1)C(=O)O [Prestw-Frag-1499, OC(=O)CC[C@H](NC(=O)c1ccccc1)C(O)=O]	1.11
COc1cc(C)cc(C)c1C [Prestw-Frag-1506, COc1cc(C)cc(C)c1C]	1.143
Cc1nccn1CCO [Prestw-Frag-1517, Cc1nccn1CCO]	0.9796 and 1.002
CNCC(c1ccc(OC)cc1)C1(O)CCCCC1 (centres unmarked) [Prestw-Frag-1523, CNCC(c1ccc(OC)cc1)C1(O)CCCCC1]	1.103 and 1.105
CN(C)C(=O)Oc1ccccc1 [Prestw-Frag-1540, CN(C)C(=O)Oc1ccccc1]	1.182
Nc1ccc([N+](=O)[O-])cc1Cl [Prestw-Frag-1543, Nc1ccc(cc1Cl)[N+]([O-])=O]	0.9851
COC(=O)C1=C(C)NC(C)=C(C(=O)OC)C1 [Prestw-Frag-1547, COC(=O)C1=C(C)NC(C)=C(C1)C(=O)OC]	0.9986
CN1Cc2c(N)cccc2C(c2ccccc2)C1 (centres unmarked) [Prestw-Frag-1552, CN1CC(c2ccccc2)c2cccc(N)c2C1]	1.162
CN1CCc2cccc(N)c2C1 [Prestw-Frag-1553, CN1CCc2cccc(N)c2C1]	1.039 and 1.009
COc1ccc(N2CCN(c3ccc(N)cc3)CC2)cc1 [Prestw-Frag-1557, COc1ccc(cc1)N1CCN(CC1)c1ccc(N)cc1]	1.098
O=c1[nH]nc(Cc2ccc(Cl)cc2)c2ccccc12 [Prestw-Frag-1559, Clc1ccc(Cc2n[nH]c(=O)c3ccccc23)cc1]	1.206 and 0.9531
O=c1[nH]ncc2ccccc12 [Prestw-Frag-1560, O=c1[nH]ncc2ccccc12]	1.119
O=c1[nH]nc(Cc2ccccc2)c2ccccc12 [Prestw-Frag-1561, O=c1[nH]nc(Cc2ccccc2)c2ccccc12]	1.103
Cc1cc(C(C)(C)C)cc(C)c1CC1=NCCN1 [Prestw-Frag-1575, Cc1cc(cc(C)c1CC1=NCCN1)C(C)(C)C]	1.056
O=c1[nH]c2ccccc2n1C1CCNCC1 [Prestw-Frag-1587, O=c1[nH]c2ccccc2n1C1CCNCC1]	1.041

From publication PMC7660650, “Chemical Starting Matter for HNF4α Ligand Discovery and Chemogenomics” (International Journal of Molecular Sciences, 2020)
